Measured values from patent publication US7671065B2, “Pyridine derivatives as potassium ion channel openers” (Janssen Pharmaceutica N.V., priority 2005, dated 2010).
pEC50: −log10 of the molar value.

The molecules below were run against T1, KATP channels (Homo sapiens, UniProt O60706+Q14654) (assay: Potassium Channel Assay (FLIPR membrane potential dye, TE671 cells)). Settings: TE671 human medulloblastoma cells, room temperature, fluorescence change monitored for 3 minutes.
T1 construct: TE671 human medulloblastoma cells were obtained from ATCC; host or cells: TE671 human medulloblastoma cells
Format: cell-based
Procedure: TE671 human medulloblastoma cells were obtained from ATCC and grown in Dulbecco's modified Eagle's medium (DMEM) supplemented with 10% fetal bovine serum, 100 U/ml penicillin and 100 U/ml streptomycine.
The day before testing, the cells were plated in black 96-well plates at 50K/well. On the day of testing, the growth media was removed, then 100 μl of FLIPR buffer (20 mM HEPES, 120 mM NaCl, 2 mM KCl, 2 mM CaCl2, 1 mM MgCl2, 5 mM Glucose) and 100 μl of Membrane Potential Assay Dye (Molecular Devices) dissolved in FLIPR buffer were added to each well. The cells were incubated at room temperature for 15 to 30 min.
The effect of test compounds on KATP channels were evaluated on a fluorometric imaging plate reader (FLIPR, Molecular Devices) at room temperature. After a baseline period, 50 μl of 5× stock solution of test compound prepared in FLIPR buffer was added and fluorescence change was monitored for 3 minutes. After this reading, glyburide, a KATP channel blocker, was added to a final concentration of 5 μM to check the specificity of the test compound as a KATP channel opener. Hyperpolarization resulting from KATP channel opening was observed as a decrease in fluorescence intensity.
Representative compounds of the present invention were tested according to the procedure described above, with results as listed in Table 7 below.

T1 sequence (Q14654 whole entry): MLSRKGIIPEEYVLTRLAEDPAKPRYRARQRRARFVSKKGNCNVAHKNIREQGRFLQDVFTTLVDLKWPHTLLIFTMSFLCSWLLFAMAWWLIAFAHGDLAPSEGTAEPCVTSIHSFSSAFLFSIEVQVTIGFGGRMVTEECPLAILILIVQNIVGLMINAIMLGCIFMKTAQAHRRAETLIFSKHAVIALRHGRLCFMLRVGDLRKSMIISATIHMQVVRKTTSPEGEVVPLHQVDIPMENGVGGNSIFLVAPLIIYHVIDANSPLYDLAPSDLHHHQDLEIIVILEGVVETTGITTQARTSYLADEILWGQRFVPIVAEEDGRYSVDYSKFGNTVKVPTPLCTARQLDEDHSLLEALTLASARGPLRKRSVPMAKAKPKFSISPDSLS
T1 sequence (O60706 1-1549 isoform O60706-2): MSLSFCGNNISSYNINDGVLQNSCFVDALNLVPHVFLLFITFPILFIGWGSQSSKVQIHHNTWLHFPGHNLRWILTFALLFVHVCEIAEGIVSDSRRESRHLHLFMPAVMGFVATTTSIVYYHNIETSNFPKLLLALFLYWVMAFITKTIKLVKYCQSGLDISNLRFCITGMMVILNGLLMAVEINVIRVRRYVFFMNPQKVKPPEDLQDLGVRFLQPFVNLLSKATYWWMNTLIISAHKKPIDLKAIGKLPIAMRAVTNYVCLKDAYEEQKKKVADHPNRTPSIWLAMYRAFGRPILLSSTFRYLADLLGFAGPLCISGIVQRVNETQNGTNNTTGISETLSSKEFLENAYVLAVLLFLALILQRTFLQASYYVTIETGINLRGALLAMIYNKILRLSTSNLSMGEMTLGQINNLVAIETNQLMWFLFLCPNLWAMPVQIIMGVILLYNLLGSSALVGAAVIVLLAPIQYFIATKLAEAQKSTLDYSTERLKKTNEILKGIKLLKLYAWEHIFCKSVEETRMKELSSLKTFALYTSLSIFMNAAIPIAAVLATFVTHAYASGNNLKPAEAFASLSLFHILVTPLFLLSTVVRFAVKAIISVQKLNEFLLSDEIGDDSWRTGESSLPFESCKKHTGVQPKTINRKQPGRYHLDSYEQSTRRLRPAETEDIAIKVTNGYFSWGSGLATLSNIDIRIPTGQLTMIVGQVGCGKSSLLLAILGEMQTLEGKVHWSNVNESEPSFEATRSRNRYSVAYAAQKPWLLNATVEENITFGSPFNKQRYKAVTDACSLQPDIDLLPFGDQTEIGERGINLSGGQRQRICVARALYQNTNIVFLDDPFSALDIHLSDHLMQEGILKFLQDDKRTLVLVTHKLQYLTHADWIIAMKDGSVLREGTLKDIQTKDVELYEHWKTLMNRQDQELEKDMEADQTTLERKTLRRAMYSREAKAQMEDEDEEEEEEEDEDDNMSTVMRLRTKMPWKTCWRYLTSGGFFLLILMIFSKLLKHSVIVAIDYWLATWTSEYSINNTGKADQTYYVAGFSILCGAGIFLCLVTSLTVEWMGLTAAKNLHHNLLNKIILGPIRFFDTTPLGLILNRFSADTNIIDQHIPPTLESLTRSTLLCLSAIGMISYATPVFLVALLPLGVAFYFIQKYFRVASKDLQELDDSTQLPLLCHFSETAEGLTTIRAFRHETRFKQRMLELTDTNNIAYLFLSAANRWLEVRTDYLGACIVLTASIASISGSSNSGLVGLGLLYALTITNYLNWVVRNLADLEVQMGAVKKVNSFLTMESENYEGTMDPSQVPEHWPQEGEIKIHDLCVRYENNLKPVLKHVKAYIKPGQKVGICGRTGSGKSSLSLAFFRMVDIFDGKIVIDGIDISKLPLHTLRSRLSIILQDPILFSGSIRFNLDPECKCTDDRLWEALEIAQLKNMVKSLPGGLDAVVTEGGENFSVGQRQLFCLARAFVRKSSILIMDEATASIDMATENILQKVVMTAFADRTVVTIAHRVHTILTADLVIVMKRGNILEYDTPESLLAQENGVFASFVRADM

| % Stimulation | pEC50 | Structure (SMILES) |
| --- | --- | --- |
| 16% | < 4.52 | N#Cc1cccc(C(O)c2ccncc2CO)c1 (stereo not shown) [Compound 57, 3-[Hydroxy-(3-hydroxymethyl-pyridin-4-yl)-methyl]-benzonitrile] |
| – | 4.86 | COc1cccc(C(O)c2cnccc2-c2cccc(C#N)c2)c1 (stereo not shown) [Compound 29, 3-{3-[Hydroxy-(3-methoxy-phenyl)-methyl]-pyridin-4-yl}-benzonitrile] |
| – | 4.71 | N#Cc1cccc(-c2ccncc2C(O)c2ccc(F)cc2)c1 (stereo not shown) [Compound 20, 3-{3-[(4-Fluoro-phenyl)-hydroxy-methyl]-pyridin-4-yl}-benzonitrile] |
| 48% | < 4.52 | N#Cc1cccc(-c2ccncc2C=O)c1 [Compound 51, 3-(3-Formyl-pyridin-4-yl)-benzonitrile] |
| 42% | < 4.52 | CCOC(=O)c1cnc2cc(C(F)(F)F)ccc2c1-c1ccccc1 [Compound 6, 4-Phenyl-7-trifluoromethyl-quinoline-3-carboxylic acid ethyl ester] |
| 20% | < 4.52 | CCOC(=O)c1cnc2cc(C(F)(F)F)ccc2c1-c1cccc(CO)c1 [Compound 12, 4-(3-Hydroxymethyl-phenyl)-7-trifluoromethyl-quinoline-3-carboxylic acid ethyl ester] |
| – | 4.76 | CC(O)c1cnccc1-c1cccc(C#N)c1 (stereo not shown) [Compound 52, 3-[3-(1-Hydroxy-ethyl)-pyridin-4-yl]-benzonitrile] |
| – | 5.34 | CCOC(=O)c1cnc2cc(C(F)(F)F)ccc2c1-c1cc(CO)ccc1OC [Compound 14, 4-(5-Hydroxymethyl-2-methoxy-phenyl)-7-trifluoromethyl-quinoline-3-carboxylic acid ethyl ester] |
| – | 4.94 | N#Cc1cccc(-c2ccncc2C(O)c2ccc(F)c(F)c2)c1 (stereo not shown) [Compound 23, 3-{3-[(3,4-Difluoro-Phenyl)-hydroxy-methyl]-pyridin-4-yl}-benzonitrile] |
| 2% | < 4.52 | CCOC(=O)c1cnc2cc(C(F)(F)F)ccc2c1-c1cccc(C(C)=O)c1 [Compound 7, 4-(3-Acetyl-phenyl)-7-trifluoromethyl-quinoline-3-carboxylic acid ethyl ester] |
| 34% | < 4.52 | OC1OC(c2ccccc2)c2ccncc21 (stereo not shown) [Compound 65, 1-Phenyl-1,3-dihydro-furo[3,4-c]pyridin-3-ol] |
| – | 5.02 | N#Cc1cccc(-c2ccncc2C(O)c2ccccc2)c1 (stereo not shown) [Compound 19, 3-[3-(Hydroxy-phenyl-methyl)-pyridin-4-yl]-benzonitrile] |
| – | 5.29 | O=C(c1ccccc1)c1ccncc1C(O)c1cccc(F)c1 (stereo not shown) [Compound 47, {3-[(3-Fluoro-phenyl)-hydroxy-methyl]-pyridin-4-yl}-phenyl-methanone] |
| – | 5.01 | N#Cc1cccc(-c2ccncc2C(O)c2cc(Cl)cc(Cl)c2)c1 (stereo not shown) [Compound 25, 3-{3-[(3,5-Dichloro-phenyl)-hydroxy-methyl]-pyridin-4-yl}benzonitrile] |
| 37% | < 4.52 | Cc1cc(C)c(C(O)c2cnccc2-c2cccc(C#N)c2)c(C)c1 (stereo not shown) [Compound 35, 3-{3-[Hydroxy-(2,4,6-trimethyl-phenyl)-methyl]-pyridin-4-yl}-benzonitrile] |
| – | 5.09 | N#Cc1cccc(C2OCc3cnccc32)c1 (stereo not shown) [Compound 66, 3-(1,3-Dihydro-furor[3,4-c]pyridin-1-yl)-benzonitrile] |
| 19% | < 4.52 | CCOC(=O)c1cnc2cc(C(F)(F)F)ccc2c1-c1cc(C(F)(F)F)cc(C(F)(F)F)c1 [Compound 3, 4-(3,5-Bis-trifluoromethyl-phenyl)-7-trifluoromethyl-quinoline-3-carboxylic acid ethyl ester] |

| % Stimulation | pEC50 | Structure (SMILES) |
| --- | --- | --- |
| – | 5.02 | COc1ccc(C(O)c2cnccc2-c2cccc(C#N)c2)cc1F (stereo not shown) [Compound 37, 3-{3-[(3-Fluoro-4-methoxy-phenyl)-hydroxy-methyl]-pyridin-4-yl}-benzonitrile] |
| 19% | < 4.52 | N#Cc1cccc(-c2ccncc2CO)c1 [Compound 50, 3-(3-Hydroxymethyl-pyridin-4-yl)-benzonitrile] |
| – | 5.10 | CC(C)C(O)c1cnccc1Br (stereo not shown) [Compound 63, 1-(4-Bromo-pyridin-3-yl)-2-methyl-propan-1-ol] |
| – | 4.92 | COc1ccc(OC)c(C(O)c2cnccc2C(=O)c2ccccc2)c1 (stereo not shown) [Compound 46, {3-[(2,5-Dimethoxy-phenyl)-hydroxy-methyl]-pyridin-4-yl}-phenyl-methanone] |
| – | 4.98 | N#Cc1cccc(-c2ccncc2C(O)C(F)(F)F)c1 (stereo not shown) [Compound 39, 3-[3-(2,2,2-Trifluoro-1-hydroxy-ethyl)-pyridin-4-yl]-benzonitrile] |
| – | 4.63 | N#Cc1cccc(-c2ccncc2C(O)c2cccc(F)c2)c1 (stereo not shown) [Compound 21, 3-{3-[(3-Fluoro-phenyl)-hydroxy-methyl]-pyridin-4-yl}-benzonitrile] |
| – | 4.97 | CC(C)(C)c1ccc(C(O)c2cnccc2-c2cccc(C#N)c2)cc1 (stereo not shown) [Compound 27, 3-{3-[(4-tert-Butyl-phenyl)-hydroxy-methyl]-pyridin-4-yl}-benzonitrile] |
| 63% | < 4.52 | Cc1ccc(F)cc1C(O)c1cnccc1-c1cccc(C#N)c1 (stereo not shown) [Compound 38, 3-{3-[(5-Fluoro-2-methyl-phenyl)-hydroxy-methyl]-pyridin-4-yl}-benzonitrile] |
| – | 5.11 | CCOC(=O)c1cnc2cc(C(F)(F)F)ccc2c1-c1cc(C=O)ccc1OC [Compound 9, 4-(5-Formyl-2-methoxy-phenyl)-7-trifluoromethyl-quinoline-3-carboxylic acid ethyl ester] |
| – | 5.07 | Cc1ccc(C(O)c2cnccc2-c2cccc(C#N)c2)cc1 (stereo not shown) [Compound 32, 3-{3-[Hydroxy-(4-methyl-phenyl)-methyl]-pyridin-4-yl}-benzonitrile] |
| – | 4.84 | N#Cc1cccc(-c2ccncc2C(O)c2ccc(Cl)c(Cl)c2)c1 (stereo not shown) [Compound 24, 3-{3-[(3,4-Dichloro-phenyl)-hydroxy-methyl]-pyridin-4-yl}-benzonitrile] |
| – | 4.68 | CSc1ccc(C(O)c2cnccc2-c2cccc(C#N)c2)cc1 (stereo not shown) [Compound 34, 3-{3-[Hydroxy-(4-methylsulfanyl-phenyl)-methyl]-pyridin-4-yl}-benzonitrile] |
| – | 4.82 | Cc1ccccc1C(O)c1cnccc1-c1cccc(C#N)c1 (stereo not shown) [Compound 31, 3-{3-[Hydroxy-(2-methyl-phenyl)-methyl]-pyridin-4-yl}-benzonitrile] |
| 22% | < 4.52 | CCOC(=O)c1cnc2cc(C(F)(F)F)ccc2c1-c1cccc(C(F)(F)F)c1 [Compound 10, 7-Trifluoromethyl-4-(3-trifluoromethyl-phenyl)-quinoline-3-carboxylic acid ethyl ester] |
| 7% | < 4.52 | COc1ccc(C(O)c2cnccc2-c2cccc(C#N)c2)cc1 (stereo not shown) [Compound 30, 3-{3-[Hydroxy-(4-methoxy-phenyl)-methyl]-pyridin-4-yl}-benzonitrile] |
| 24% | < 4.52 | COc1ccc(F)cc1C(O)c1cnccc1-c1cccc(C#N)c1 (stereo not shown) [Compound 36, 3-{3-[(5-Fluoro-2-methoxy-phenyl)-hydroxy-methyl]-pyridin-4-yl}-benzonitrile] |
